Values after ≈ are worked out from the molar mass of the structure shown.
Legend:
[1] = tested on: Candida albicans ATCC MYA-2876; assay: Minimal inhibitory concentration (MIC) test on fungal growth (CLSI M27, yeasts); assay type: cell-based; settings: lowest concentration inhibiting growth of yeast by 50%, 35° C., 24 hours, RPMI1640; for MIC: Candida albicans, read-out: MIC Candida albicans ATCC MYA-2876
In short: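 Broth microdilution followed CLSI M27 in RPMI1640 buffered with 0.165 M MOPS, pH 7.0, with a final inoculum of 500–2500 CFU/mL. Eleven 2-fold compound concentrations were tested, and plates were incubated 24 h at 35 °C. MIC was the lowest concentration giving 50% growth inhibition, read visually with optional OD530 assistance.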

[2] = tested on: Aspergillus fumigatus ATCC MYA-4609; assay: Minimal inhibitory concentration (MIC) test on fungal growth (CLSI M38, Aspergillus); assay type: cell-based; settings: lowest concentration inhibiting Aspergillus by 100%, 35° C., 48 hours, RPMI1640; for MIC: Aspergillus fumigatus, read-out: MIC Aspergillus fumigatus ATCC MYA-4609
Method: • RPMI1640 medium: Brand: Gibco, article number: 31800-014 • Sabouraud dextrose agar (SDA): Brand: Hope Bio, article number: HB0253-81 • Voriconazole: Brand: Adamas, article number: 22105A • Amphotericin B: Brand: AbCam, article number: ab141199
MIC test was conducted in accordance with the guidelines and requirements of CLSI M27 (for yeasts) and M38 (for Aspergillus).
Strain preparation: The strains were inoculated 1 day in advance by streaking on SDA plates with glycerol strains stored at −80° C. The strains were cultured at 35° C. and 40 to 60% humidity for 18 to 24 hours. Streak inoculation of Aspergillus fumigatus and Cryptococcus neoformans was required to be done 3 days and 2 days in advance, respectively.
Preparation of culture medium and compounds: The liquid culture medium RPMI was prepared with pure water, and 0.165 mol/L MOPS was added to adjust the pH to 7.0. The mixture was filtered with a 0.22 μm-membrane filter, sterilized, and stored at 4° C. (no more than 3 months). 0.85% physiological saline was sterilized at 121° C. for 30 min and then stored at room temperature (no more than 1 week). The compounds were dissolved in DMSO to 12.8 mg/mL and stored at −20° C.
For Aspergillus, 5 mL of physiological saline was added to cover the mycelium, and the spores were gently scraped off with a spreader. The spore suspension was then transferred to a sterile test tube. An appropriate amount of spore suspension was taken and counted under a microscope using a hemocytometer. Spore concentration was adjusted to approximately 0.4 to 5×10^4 spores/mL using RPMI1640 medium.
The compound was diluted to the highest 800 μg/mL (or 400 μg/mL) with DMSO, and a 10-step 2-fold gradient dilution was performed, resulting in 11 concentrations. 2 μL of the gradient-diluted compound was transferred to the corresponding wells of a 96-well plate, and then 198 μL of the inoculum was transferred to the test plate. The plate was incubated at 35° C. for 24 hours (Aspergillus fumigatus and Cryptococcus neoformans were incubated for 48 and 72 hours, respectively).
After the incubation, the growth of the fungi was visually observed. The lowest concentration of the compound that inhibited the growth of yeast by 50% (inhibited Aspergillus by 100%) was defined as the minimum inhibitory concentration (MIC, μg/mL). A magnifying glass or reading at OD530 nm could be used to assist in determining the MIC. Photos were taken of the test plates for record keeping.

SMILES	MIC [1]	MIC [2]	MIC Candida albicans ATCC MYA-2876 [1]	MIC Aspergillus fumigatus ATCC MYA-4609 [2]
O[C@@H](COc1ccc(C23CC(C(F)(F)[C@](O)(Cn4cnnn4)c4ccc(F)cc4F)(C2)C3)cc1)C1CC1 (relative stereo) [Compound 144B]	≤ 0.0039 µg/mL	4 µg/mL (≈ 7.71 µM)		
OC(Cn1cncn1)(c1ccc(F)cc1F)C(F)(F)C12CC(c3ccc(OC(F)(F)F)cc3)(C1)C2 (stereo not drawn) [Compound 25]	0.0078 µg/mL (≈ 0.0156 µM)	2 µg/mL (≈ 3.99 µM)		
O[C@H](COc1ccc(C23CC(C(F)(F)[C@](O)(Cn4cncn4)c4ccc(F)cc4F)(C2)C3)cc1)C(F)(F)F (relative stereo) [Compound 132A]	≤ 0.0039 µg/mL	0.5 µg/mL (≈ 0.917 µM)		
OC(COc1ccc(C23CC(C(F)(F)C(O)(Cn4cnnn4)c4ccc(F)cc4F)(C2)C3)cc1)C(F)(F)F (stereo not drawn) [Compound 51]	0.0078 µg/mL (≈ 0.0143 µM)	4 µg/mL (≈ 7.32 µM)		
O[C@@](Cn1cnnn1)(c1ccc(F)cc1F)C(F)(F)C12CC(c3ccc(O[C@@H]4CCOC4)cc3)(C1)C2 [Compound 40A]			≤0.0039 µg/mL	4 µg/mL (≈ 7.93 µM)
OC(COc1ccc(C23CC(C(F)(F)C(O)(Cn4cnnn4)c4ccc(F)cc4F)(C2)C3)cc1)CC(F)(F)F (stereo not drawn) [Compound 142]			0.0078 µg/mL (≈ 0.0139 µM)	8 µg/mL (≈ 14.3 µM)
OC(Cn1cncn1)(c1ccc(F)cc1F)C(F)(F)C12CC(c3ccc(OCC(F)(F)F)cc3)(C1)C2 (stereo not drawn) [Compound 2]	0.0078 µg/mL (≈ 0.0151 µM)	1 µg/mL (≈ 1.94 µM)		
O[C@@](Cn1cnnn1)(c1ccc(F)cc1F)C(F)(F)C12CC(c3ccc(O[C@H]4CCOC4)cc3)(C1)C2 [Compound 41A]			≤0.0039 µg/mL	8 µg/mL (≈ 15.9 µM)
OC(Cn1cnnn1)(c1ccc(F)cc1F)C(F)(F)C12CC(c3ccc(O[C@@H]4CCOC4)cc3)(C1)C2 (stereo partly drawn) [Compound 40]	≤ 0.0039 µg/mL	16 µg/mL (≈ 31.7 µM)		
OC1(COc2ccc(C34CC(C(F)(F)[C@](O)(Cn5cnnn5)c5ccc(F)cc5F)(C3)C4)cc2)CC(F)(F)C1 [Compound 149A]	≤ 0.0039 µg/mL	2 µg/mL (≈ 3.61 µM)		
O[C@@](Cn1cnnn1)(c1ccc(F)cc1F)C(F)(F)C12CC(c3ccc(COC(F)F)cc3)(C1)C2 (stereo in doubt) [Compound 159A]	≤ 0.0039 µg/mL	2 µg/mL (≈ 4.01 µM)		
OC(Cn1cnnn1)(c1ccc(F)cc1F)C(F)(F)C12CC(c3ccc(OCC(F)(F)F)cc3)(C1)C2 (stereo not drawn) [Compound 3]	0.03 µg/mL (≈ 0.0581 µM)	2 µg/mL (≈ 3.87 µM)		
CC(C12CC(c3ccc(OC[C@H](O)C(F)(F)F)cc3)(C1)C2)C(O)(Cn1cncn1)c1ccc(F)cc1F (stereo in doubt) [Compound 125]	≤ 0.0039 µg/mL	1 µg/mL (≈ 1.91 µM)		
O[C@@H](COc1ccc(C23CC(C(F)(F)[C@](O)(Cn4cnnn4)c4ccc(F)cc4F)(C2)C3)cc1)CC(F)(F)F (relative stereo) [Compound 142B]	≤ 0.0039 µg/mL	4 µg/mL (≈ 7.14 µM)		
O[C@H](COc1ccc(C23CC(C(F)(F)[C@](O)(Cn4cnnn4)c4ccc(F)cc4F)(C2)C3)cc1)CC(F)(F)F (relative stereo) [Compound 142A]	≤ 0.0039 µg/mL	4 µg/mL (≈ 7.14 µM)		
CC(C)(O)COc1ccc(C23CC(C(F)(F)[C@](O)(Cn4cnnn4)c4ccc(F)cc4F)(C2)C3)cc1 [Compound 36A]	0.0078 µg/mL (≈ 0.0154 µM)	4 µg/mL (≈ 7.9 µM)		
O[C@H](COc1ccc(C23CC(C(F)(F)[C@@](O)(Cn4cnnn4)c4ccc(F)cc4F)(C2)C3)cn1)C(F)(F)F [Compound 97B]			0.0078 µg/mL (≈ 0.0142 µM)	8 µg/mL (≈ 14.6 µM)
N#Cc1ccc(C23CC(C(F)(F)C(O)(Cn4cncn4)c4ccc(F)cc4F)(C2)C3)cn1 (stereo not drawn) [Compound 128]			0.0078 µg/mL (≈ 0.0176 µM)	4 µg/mL (≈ 9.02 µM)
N#Cc1ccc(C23CC(C(F)(F)C(O)(Cn4cncn4)c4ccc(F)cc4F)(C2)C3)cc1 (stereo not drawn) [Compound 27]	≤ 0.0039 µg/mL	1 µg/mL (≈ 2.26 µM)		
OC(Cn1cncn1)(CC12CC(c3ccc(OCC(F)(F)F)cc3)(C1)C2)c1ccc(F)cc1F (stereo not drawn) [Compound 49]	0.0078 µg/mL (≈ 0.0163 µM)	1 µg/mL (≈ 2.09 µM)		
OC(Cn1cnnn1)(c1ccc(F)cc1F)C(F)(F)C12CC(c3ccc(OCC(F)F)cc3)(C1)C2 (stereo not drawn) [Compound 22]	0.0078 µg/mL (≈ 0.0156 µM)	4 µg/mL (≈ 8.03 µM)		
